Reference: ChEMBL document CHEMBL1152385, “Cyanoguanidine-based lactam derivatives as a novel class of orally bioavailable factor Xa inhibitors” (Bioorg Med Chem Lett, 2009)
The source made the active and inactive calls.

Columns and labels:
[1] = molecular target: Beta-2 adrenergic receptor (Homo sapiens) (UniProt P07550); experiment: Inhibition of human adrenergic beta2 receptor at 10 uM
[2] = molecular target: Muscarinic acetylcholine receptor (Rattus norvegicus) (UniProt P08482+P08483+P08485+P08911+P10980); experiment: Inhibition of rat muscarinic receptor at 10 uM
[3] = Inhibition of tryptase
[4] = species: Rattus norvegicus; experiment: Inhibition of rat sodium channel site 2 at 10 uM
[5] = molecular target: 5-hydroxytryptamine receptor 2B (Homo sapiens) (UniProt P41595); experiment: Inhibition of human 5HT2B receptor at 10 uM
[6] = molecular target: Histamine H2 receptor (Cavia porcellus) (UniProt P47747); experiment: Inhibition of guinea pig histamine H2 receptor at 10 uM
[7] = molecular target: Sodium-dependent noradrenaline transporter (Homo sapiens) (UniProt P23975); experiment: Inhibition of human norepinephrine transporter at 10 uM
[8] = molecular target: Sodium-dependent dopamine transporter (Rattus norvegicus) (UniProt P23977); experiment: Inhibition of rat dopamine transporter at 10 uM
[9] = tested on: Rattus norvegicus; experiment: Ex vivo anticoagulant activity in pentobarbital-anesthetized Sprague-Dawley rat assessed as prolongation of prothrombin time administered as initial bolus iv dosing followed by sustaining iv infusion; type: functional, organism-based
[10] = molecular target: Adrenergic receptor alpha-1 (Rattus norvegicus) (UniProt P15823+P23944+P43140); experiment: Inhibition of rat adrenergic alpha1 receptor at 10 uM
[11] = species: Rattus norvegicus; experiment: Inhibition of rat chloride channel at 10 uM
[12] = tested on: Rattus norvegicus; experiment: Antithrombotic activity in pentobarbital-anesthetized Sprague-Dawley rat assessed reduction in occlusion of arteries administered as initial 20 mg/kg, iv bolus dose followed by sustaining 20 mg/kg/h, iv dosing; type: functional, organism-based
[13] = Inhibition of sodium channel
[14] = species: Rattus norvegicus; experiment: Inhibition of rat kainate receptor at 10 uM
[15] = species: Rattus norvegicus; experiment: Inhibition of rat AMPA receptor at 10 uM
[16] = species: Mus musculus; experiment: Inhibition of mouse rolipram binding site at 10 uM
[17] = molecular target: Cholecystokinin receptor type A (Homo sapiens) (UniProt P32238); experiment: Inhibition of human CCK1 receptor at 10 uM
[18] = molecular target: Histamine H1 receptor (Cavia porcellus) (UniProt P31389); experiment: Inhibition of guinea pig histamine H1 receptor at 10 uM
[19] = molecular target: D(2) dopamine receptor (Homo sapiens) (UniProt P14416); experiment: Inhibition of human dopamine D2S receptor at 10 uM
[20] = molecular target: Adenosine receptor A1 (Homo sapiens) (UniProt P30542); experiment: Inhibition of human adenosine A1 receptor at 10 uM
[21] = species: Rattus norvegicus; experiment: animal or person; conditions: Sprague-Dawley, iv
[22] = tested on: Plasma
[23] = molecular target: Adrenergic receptor alpha-2 (Rattus norvegicus) (UniProt P22086+P19328+P22909); experiment: Inhibition of rat adrenergic alpha2 receptor at 10 uM
[24] = molecular target: Beta-1 adrenergic receptor (Homo sapiens) (UniProt P08588); experiment: Inhibition of human adrenergic beta-1 receptor at 10 uM
[25] = species: Rattus norvegicus; experiment: Inhibition of rat choline transporter at 10 uM
[26] = molecular target: 5-hydroxytryptamine receptor 1A (Homo sapiens) (UniProt P08908); experiment: Inhibition of human 5HT1A receptor at 10 uM
[27] = cells; conditions: Homo sapiens, TC5
[28] = molecular target: D(1A) dopamine receptor (Homo sapiens) (UniProt P21728); experiment: Inhibition of human dopamine D1 receptor at 10 uM
[29] = species: Rattus norvegicus; experiment: Inhibition of rat 5-HT receptor at 10 uM
[30] = tested on: Rattus norvegicus; experiment: Antithrombotic activity in pentobarbital-anesthetized Sprague-Dawley rat assessed as improved blood flow in arterial thrombosis administered as initial bolus iv dosing plus sustaining iv infusion; type: functional, organism-based
[31] = molecular target: Estrogen receptor (Homo sapiens) (UniProt P03372); experiment: Inhibition of human ERalpha receptor at 10 uM
[32] = species: Rattus norvegicus; experiment: Inhibition of rat opioid receptor at 10 uM
[33] = species: Rattus norvegicus; experiment: Inhibition of rat GABA transporter at 10 uM
[34] = species: Rattus norvegicus; experiment: Inhibition of rat PCP receptor at 10 uM
[35] = molecular target: Glucocorticoid receptor (Homo sapiens) (UniProt P04150); experiment: Inhibition of human glucocorticoid receptor at 10 uM
[36] = Inhibition of trypsin
[37] = molecular target: Glutamate NMDA receptor (Rattus norvegicus) (UniProt P35439+Q00959+Q00960+Q00961+Q62645+Q8VHN2+Q9R1M7); experiment: Inhibition of rat NMDA receptor at 10 uM; type: protein-complex assay
[38] = molecular target: Progesterone receptor (Homo sapiens) (UniProt P06401); experiment: Inhibition of human progesterone receptor at 10 uM
[39] = Inhibition of sst receptor at 10 uM
[40] = species: Rattus norvegicus; experiment: animal or person; conditions: Sprague-Dawley, Vena cava, iv
[41] = species: Rattus norvegicus; experiment: Inhibition of rat central-type benzodiazepine receptor at 10 uM

Sequence of Beta-1 adrenergic receptor (Homo sapiens) (P08588 whole entry, looked up): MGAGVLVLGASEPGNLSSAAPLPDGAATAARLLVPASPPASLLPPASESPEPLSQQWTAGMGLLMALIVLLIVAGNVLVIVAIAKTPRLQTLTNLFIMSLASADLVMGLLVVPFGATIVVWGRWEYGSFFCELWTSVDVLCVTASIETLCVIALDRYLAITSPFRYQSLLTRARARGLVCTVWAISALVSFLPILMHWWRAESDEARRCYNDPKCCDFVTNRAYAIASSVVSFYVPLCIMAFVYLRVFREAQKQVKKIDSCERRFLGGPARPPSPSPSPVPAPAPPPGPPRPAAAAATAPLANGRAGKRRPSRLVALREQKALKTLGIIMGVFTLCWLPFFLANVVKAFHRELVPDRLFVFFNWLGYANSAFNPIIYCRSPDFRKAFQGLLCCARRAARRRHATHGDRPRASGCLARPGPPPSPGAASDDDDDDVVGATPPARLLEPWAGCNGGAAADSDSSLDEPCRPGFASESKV
Sequence of 5-hydroxytryptamine receptor 1A (Homo sapiens) (P08908 whole entry): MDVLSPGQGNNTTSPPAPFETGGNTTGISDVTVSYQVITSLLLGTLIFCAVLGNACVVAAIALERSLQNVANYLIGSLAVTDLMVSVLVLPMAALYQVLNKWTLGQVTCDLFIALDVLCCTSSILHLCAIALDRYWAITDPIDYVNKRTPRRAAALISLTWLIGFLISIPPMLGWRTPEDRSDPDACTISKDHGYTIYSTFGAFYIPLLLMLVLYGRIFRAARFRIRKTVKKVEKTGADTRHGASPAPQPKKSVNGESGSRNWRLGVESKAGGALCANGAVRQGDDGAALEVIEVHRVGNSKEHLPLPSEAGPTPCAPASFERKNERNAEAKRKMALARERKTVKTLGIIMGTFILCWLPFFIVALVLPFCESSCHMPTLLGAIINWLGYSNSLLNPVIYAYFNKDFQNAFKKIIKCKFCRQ
Sequence of Cholecystokinin receptor type A (Homo sapiens) (P32238 whole entry): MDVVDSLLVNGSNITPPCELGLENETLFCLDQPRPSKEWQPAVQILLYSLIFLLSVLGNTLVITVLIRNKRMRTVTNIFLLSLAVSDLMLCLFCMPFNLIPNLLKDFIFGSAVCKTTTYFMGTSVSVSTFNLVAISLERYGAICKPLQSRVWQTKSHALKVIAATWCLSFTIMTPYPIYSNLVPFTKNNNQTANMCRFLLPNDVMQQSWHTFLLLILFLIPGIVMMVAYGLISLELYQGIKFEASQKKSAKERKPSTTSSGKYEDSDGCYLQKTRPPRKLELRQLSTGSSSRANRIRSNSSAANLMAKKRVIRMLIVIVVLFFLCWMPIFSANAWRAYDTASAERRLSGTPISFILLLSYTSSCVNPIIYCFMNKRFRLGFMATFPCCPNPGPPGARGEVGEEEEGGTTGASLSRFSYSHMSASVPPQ
Sequence of Adenosine receptor A1 (Homo sapiens) (P30542 whole entry): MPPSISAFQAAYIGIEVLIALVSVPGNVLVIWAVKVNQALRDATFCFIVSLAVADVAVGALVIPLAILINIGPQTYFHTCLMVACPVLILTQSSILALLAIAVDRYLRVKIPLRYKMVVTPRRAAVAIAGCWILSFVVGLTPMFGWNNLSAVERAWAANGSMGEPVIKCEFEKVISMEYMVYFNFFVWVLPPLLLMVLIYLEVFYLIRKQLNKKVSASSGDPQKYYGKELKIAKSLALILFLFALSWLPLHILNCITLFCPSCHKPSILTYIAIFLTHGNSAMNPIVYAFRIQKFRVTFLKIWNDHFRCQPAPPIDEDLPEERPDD
Sequence of Beta-2 adrenergic receptor (Homo sapiens) (P07550 whole entry, looked up): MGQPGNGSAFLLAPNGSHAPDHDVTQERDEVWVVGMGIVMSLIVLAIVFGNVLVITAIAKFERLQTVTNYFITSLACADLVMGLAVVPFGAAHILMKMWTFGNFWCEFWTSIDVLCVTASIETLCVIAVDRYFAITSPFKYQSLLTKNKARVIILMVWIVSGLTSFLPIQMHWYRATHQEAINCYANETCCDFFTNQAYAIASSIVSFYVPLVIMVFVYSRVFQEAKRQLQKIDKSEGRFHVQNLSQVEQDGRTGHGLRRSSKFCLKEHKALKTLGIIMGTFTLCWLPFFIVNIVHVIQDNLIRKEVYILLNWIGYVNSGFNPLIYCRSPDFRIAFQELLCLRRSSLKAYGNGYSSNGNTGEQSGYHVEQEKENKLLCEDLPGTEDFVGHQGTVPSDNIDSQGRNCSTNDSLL
Sequence of 5-hydroxytryptamine receptor 2B (Homo sapiens) (P41595 whole entry): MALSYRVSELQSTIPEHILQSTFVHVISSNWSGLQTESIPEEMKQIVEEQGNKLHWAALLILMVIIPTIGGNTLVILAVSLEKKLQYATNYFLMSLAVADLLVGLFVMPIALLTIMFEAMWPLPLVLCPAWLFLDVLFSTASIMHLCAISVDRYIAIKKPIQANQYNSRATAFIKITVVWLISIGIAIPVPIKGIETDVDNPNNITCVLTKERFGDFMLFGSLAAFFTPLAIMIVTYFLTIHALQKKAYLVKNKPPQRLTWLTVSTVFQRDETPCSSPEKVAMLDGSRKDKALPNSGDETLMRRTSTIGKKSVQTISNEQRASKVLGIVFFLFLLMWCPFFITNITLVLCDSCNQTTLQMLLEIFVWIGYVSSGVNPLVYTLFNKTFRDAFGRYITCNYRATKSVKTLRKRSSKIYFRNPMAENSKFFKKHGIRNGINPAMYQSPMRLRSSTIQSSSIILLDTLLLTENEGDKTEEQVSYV
Sequence of Estrogen receptor (Homo sapiens) (P03372 whole entry): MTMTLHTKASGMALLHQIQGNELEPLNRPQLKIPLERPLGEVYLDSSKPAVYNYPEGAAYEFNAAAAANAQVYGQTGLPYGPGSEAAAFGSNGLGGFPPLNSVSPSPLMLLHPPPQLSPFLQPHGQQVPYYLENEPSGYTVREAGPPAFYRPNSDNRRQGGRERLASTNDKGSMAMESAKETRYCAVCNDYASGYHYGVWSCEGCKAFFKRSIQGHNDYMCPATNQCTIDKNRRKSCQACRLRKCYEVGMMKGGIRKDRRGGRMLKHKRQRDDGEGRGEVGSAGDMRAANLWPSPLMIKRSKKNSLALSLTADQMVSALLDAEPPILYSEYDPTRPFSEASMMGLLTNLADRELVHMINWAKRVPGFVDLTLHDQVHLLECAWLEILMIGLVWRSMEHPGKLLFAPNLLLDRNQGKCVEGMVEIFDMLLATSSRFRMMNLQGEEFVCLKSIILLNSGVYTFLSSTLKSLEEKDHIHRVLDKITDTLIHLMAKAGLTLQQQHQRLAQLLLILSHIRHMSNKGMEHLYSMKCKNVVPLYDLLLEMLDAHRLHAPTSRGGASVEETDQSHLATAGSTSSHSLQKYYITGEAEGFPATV
Sequence of Sodium-dependent noradrenaline transporter (Homo sapiens) (P23975 whole entry): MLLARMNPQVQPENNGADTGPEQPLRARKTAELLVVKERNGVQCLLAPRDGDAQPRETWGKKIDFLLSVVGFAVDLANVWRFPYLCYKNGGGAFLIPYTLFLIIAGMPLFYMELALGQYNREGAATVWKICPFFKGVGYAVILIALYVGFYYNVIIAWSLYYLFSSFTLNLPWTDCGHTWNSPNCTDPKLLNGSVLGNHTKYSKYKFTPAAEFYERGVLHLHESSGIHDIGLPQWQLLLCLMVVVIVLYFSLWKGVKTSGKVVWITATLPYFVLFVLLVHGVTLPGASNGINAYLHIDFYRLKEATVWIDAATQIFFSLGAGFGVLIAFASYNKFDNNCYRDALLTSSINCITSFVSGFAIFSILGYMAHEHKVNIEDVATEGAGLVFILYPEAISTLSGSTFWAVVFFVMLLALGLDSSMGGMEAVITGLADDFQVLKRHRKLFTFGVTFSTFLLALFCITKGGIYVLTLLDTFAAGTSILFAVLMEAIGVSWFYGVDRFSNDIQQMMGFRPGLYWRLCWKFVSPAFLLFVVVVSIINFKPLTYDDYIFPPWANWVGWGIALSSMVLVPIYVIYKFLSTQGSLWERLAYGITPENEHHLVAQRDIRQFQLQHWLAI
Sequence of Progesterone receptor (Homo sapiens) (P06401 whole entry): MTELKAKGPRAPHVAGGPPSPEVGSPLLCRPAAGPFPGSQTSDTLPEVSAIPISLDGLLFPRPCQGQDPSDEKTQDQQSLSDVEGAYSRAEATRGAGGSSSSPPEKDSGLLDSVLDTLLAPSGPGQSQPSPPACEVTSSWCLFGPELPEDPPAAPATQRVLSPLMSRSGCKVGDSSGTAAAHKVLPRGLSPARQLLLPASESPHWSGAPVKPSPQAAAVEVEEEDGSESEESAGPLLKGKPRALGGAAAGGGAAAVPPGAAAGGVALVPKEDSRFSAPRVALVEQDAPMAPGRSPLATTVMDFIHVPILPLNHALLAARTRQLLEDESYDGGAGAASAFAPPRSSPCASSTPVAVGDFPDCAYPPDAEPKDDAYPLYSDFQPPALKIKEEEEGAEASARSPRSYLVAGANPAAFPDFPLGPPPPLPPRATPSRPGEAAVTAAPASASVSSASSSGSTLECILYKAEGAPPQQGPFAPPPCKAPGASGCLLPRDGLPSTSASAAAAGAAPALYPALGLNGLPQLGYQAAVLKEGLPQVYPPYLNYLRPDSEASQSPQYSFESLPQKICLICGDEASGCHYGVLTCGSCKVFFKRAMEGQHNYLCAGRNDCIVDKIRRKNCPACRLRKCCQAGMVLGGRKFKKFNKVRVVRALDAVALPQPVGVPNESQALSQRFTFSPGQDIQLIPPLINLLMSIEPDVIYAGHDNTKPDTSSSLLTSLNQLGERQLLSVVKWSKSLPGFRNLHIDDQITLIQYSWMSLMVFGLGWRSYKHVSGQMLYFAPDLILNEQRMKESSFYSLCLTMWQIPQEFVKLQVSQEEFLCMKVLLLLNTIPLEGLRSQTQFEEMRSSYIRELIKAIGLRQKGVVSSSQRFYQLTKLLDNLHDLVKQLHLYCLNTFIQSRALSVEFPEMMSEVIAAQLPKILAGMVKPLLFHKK

Cc1cc2cc(/N=C(/NC#N)N[C@H]3CCCCN(CC(=O)N4CCCC4)C3=O)ccc2o1
30 µM: EC [22]
25 mg/kg: ED50 [21]
> 10 µM: Ki [36]
inactive: inhibition [1] | inhibition [2] | inhibition [4] | inhibition [5] | inhibition [6] | inhibition [7] | inhibition [8] | inhibition [10] | inhibition [11] | inhibition [13] | inhibition [14] | inhibition [15] | inhibition [16] | inhibition [17] | inhibition [18] | inhibition [19] | inhibition [20] | inhibition [23] | inhibition [24] | inhibition [25] | inhibition [26] | inhibition [28] | inhibition [29] | inhibition [31] | inhibition [32] | inhibition [33] | inhibition [34] | inhibition [35] | inhibition [37] | inhibition [38] | inhibition [39] | inhibition [41]
> 16 µM: Ki [3]
active: Activity [9] Dose-dependent effect | Activity [12] | Activity [30]
6 mg/kg: ED50 [40]
> 200 µM: IC50 [27]
